According to patent publication US9340577B2, “HLA binding motifs and peptides and their uses” (priority 1992, dated 2016):
pIC50: −log10 of the molar value. Where two headings read alike, the source gives them in different places. No end group written: not given here.

How the values were obtained:
Assay in all cases: biochemical
DRB1*1101 = DRB1*1101 (Homo sapiens, UniProt P01903+P01911, A100R/A169T/A87E/I96F/K41T/L162R/M171V/P40S/Q125H/Q178H/Q39Y/Q99D/R42S/S66Y/T262R/V115G/W38E)
DRB1*0405 = DRB1*0405 (Homo sapiens, UniProt P01903+P01911, A100R/A169T/D86S/F76Y/I96L/K127E/L162R/M171V/N62H/P40V/Q125Y/R42H/S133A/S149N/S66Y/V115G/V209L/W38E); format: binding
DR7 (DRB1*0701) = DR7 (DRB1*0701) (Homo sapiens, UniProt P01903+P01911, A100R/A102G/A103Q/D57E/D86V/E43K/F76Y/K127E/L162R/M171V/P40G/Q125H/Q99D/R33Q/R42Y/R54Q/S133A/S66F/T210M/V115G/Y107V/Y59L/Y89S); format: binding
DRB1*1501 = DRB1*1501 (Homo sapiens, UniProt P01903+P01911); format: binding
DRB1*0901 = DRB1*0901 (Homo sapiens, UniProt P01903+P01911, A100R/A103E/D57H/D86V/F55Y/F60I/F76Y/I96F/K127E/L162R/M171V/P40D/Q125H/Q99R/R33Q/R42F/S133A/S66N/T210M/V115G/W38K/Y107V/Y59G/Y89S); format: binding
DR1 (DRB1*0101) = DR1 (DRB1*0101) (Homo sapiens, UniProt P01903+P01911, A100R/D57E/F55L/F60I/F76Y/I96L/L162R/M171V/P40L/Q125E/R42F/V115G/Y59C); format: binding
DRB4*0101 = DRB4*0101 (Homo sapiens, UniProt P01903+P13762, G164S); format: binding
DRB1*0802 = DRB1*0802 (Homo sapiens, UniProt P01903+P01911, A100R/A103L/A169T/F76Y/H45Y/I96F/K41T/L162R/M171V/P40S/Q125H/Q178H/Q39Y/Q99D/R218S/R42G/S66Y/V115G/W38E); format: binding
DRB1*0301 = DRB1*0301 (Homo sapiens, UniProt P01903+P01911, A100K/A102G/A103R/A169T/F55Y/I96L/K41T/L162R/M171V/P40S/Q125H/Q178H/Q39Y/R42S/S66N/T106N/T262R/W38E/Y61H); format: binding
DRB5*0101 = DRB5*0101 (Homo sapiens, UniProt P01903+Q30154)
DRB3*0101 = DRB3*0101 (Homo sapiens, UniProt P01903+P79483); format: binding
DRB1*1302 = DRB1*1302 (Homo sapiens, UniProt P01903+P01911, A100E/A169T/K41T/L162R/M171V/P40S/Q125H/Q178H/Q39Y/Q99D/R42S/S66N/T262R/V115G/W38E/Y61H); format: binding
DR4w4 (DRB1*0401) = DR4w4 (DRB1*0401) (Homo sapiens, UniProt P01903+P01911, A100K/A169T/F76Y/I96L/K127E/L162R/M171V/N62H/P40V/Q125Y/R42H/S133A/S149N/S66Y/V115G/V209L/W38E); format: binding

DRB1*0301, sequence (P01903 26-254 limits assumed, other chains not shown): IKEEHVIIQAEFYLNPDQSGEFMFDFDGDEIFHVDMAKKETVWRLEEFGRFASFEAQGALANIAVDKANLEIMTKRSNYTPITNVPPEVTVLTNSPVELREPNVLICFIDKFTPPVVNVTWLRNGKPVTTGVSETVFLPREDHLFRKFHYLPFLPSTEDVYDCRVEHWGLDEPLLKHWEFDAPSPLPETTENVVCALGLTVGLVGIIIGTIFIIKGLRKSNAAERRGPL
DRB1*1101, sequence (P01903 26-254 limits assumed, other chains not shown): as above
DRB1*1302, sequence (P01903 26-254 limits assumed, other chains not shown): as above

| Compound | pIC50 (DRB1*1101; Binding affinity DRB1 *1101) | pIC50 (DRB1*0405) | pIC50 (DR7 (DRB1*0701)) | pIC50 (DRB1*1501) | pIC50 (DRB1*0901) | pIC50 (DR1 (DRB1*0101)) | pIC50 (DRB4*0101) | pIC50 (DRB1*0802) | pIC50 (DRB1*0301) | pIC50 (DRB5*0101; Binding affinity DRB5 *0101) | pIC50 (DRB3*0101) | pIC50 (DRB1*1302) | pIC50 (DR4w4 (DRB1*0401)) | pIC50 (DRB1*1101) | pIC50 (DRB5*0101) |
| --- | --- | --- | --- | --- | --- | --- | --- | --- | --- | --- | --- | --- | --- | --- | --- |
| QMMLETLNNTEYKNE [Peptide 1601.22] | < 4.70 | 7.20 | < 4.70 | < 4.70 | < 4.70 | < 4.70 | 6.26 | < 4.70 | 5.02 | < 4.70 | < 4.70 | 4.83 | – | – | – |
| CC(C)[C@H](NC(=O)[C@H](CCC(=O)O)NC(=O)[C@H](Cc1c[nH]c2ccccc12)NC(=O)[C@@H](NC(=O)CNC(=O)[C@@H](NC(=O)[C@H](CC(N)=O)NC(=O)CNC(=O)[C@H](Cc1ccc(O)cc1)NC(=O)[C@H](CCCCN)NC(=O)[C@@H](N)CCC(=O)O)[C@@H](C)O)[C@@H](C)O)C(=O)N[C@@H](Cc1c[nH]cn1)C(=O)N[C@@H](Cc1ccccc1)C(=O)NCC(=O)N[C@@H](CC(N)=O)C(=O)O [Peptide 1601.11] | < 4.70 | 4.83 | 7.04 | < 4.70 | 5.60 | 6.30 | < 4.70 | < 4.70 | < 4.70 | < 4.70 | < 4.70 | < 4.70 | – | – | – |
| SDEISFAGIVTKLPT [Peptide 1601.45] | 4.91 | 5.63 | 6.05 | 6.10 | 5.89 | 6.29 | – | 4.97 | 5.78 | – | < 4.70 | – | 5.06 | – | – |
| PTGCLKKHGYTVEVQ [Peptide 1601.23] | < 4.70 | < 4.70 | 5.64 | – | 5.76 | 4.75 | 5.13 | < 4.70 | < 4.70 | < 4.70 | < 4.70 | 7.09 | 4.70 | – | – |
| CC[C@H](C)[C@H](NC(=O)CNC(=O)[C@@H](NC(=O)[C@H](CCCCN)NC(=O)[C@H](CCC(=O)O)NC(=O)[C@H](CC(N)=O)NC(=O)CNC(=O)[C@H](C)N)[C@@H](C)O)C(=O)N[C@@H](CC(C)C)C(=O)N[C@H](C(=O)N[C@H](C(=O)N[C@H](C(=O)N[C@@H](Cc1ccc(O)cc1)C(=O)N[C@@H](Cc1c[nH]cn1)C(=O)N[C@@H](CO)C(=O)O)[C@@H](C)O)C(C)C)[C@@H](C)O [Peptide 1601.18] | < 4.70 | 5.17 | – | 5.55 | < 4.70 | < 4.70 | 6.03 | < 4.70 | < 4.70 | < 4.70 | < 4.70 | < 4.70 | 5.40 | – | – |
| TYISTSQRDDFLNTV [Peptide 1601.27] | < 4.70 | 5.28 | – | < 4.70 | 4.89 | < 4.70 | 6.32 | < 4.70 | 6.82 | < 4.70 | 5.18 | – | 4.79 | – | – |
| TTPIIHKLGDRNSLK [Peptide 1601.17] | – | 4.72 | < 4.70 | 6.42 | < 4.70 | 7.07 | 7.72 | 6.38 | 6.30 | – | 4.96 | 5.83 | 6.41 | 5.32 | 5.25 |
| FLDVVTIPNSVQISV [Peptide 1601.40] | 5.66 | 5.75 | 6.31 | – | 5.03 | 6.26 | 5.66 | 4.83 | 5.08 | < 4.70 | 4.75 | 7.28 | 7.77 | – | – |
| YENDSTDLRDHIDYW [Peptide 1601.01] | < 4.70 | < 4.70 | < 4.70 | < 4.70 | < 4.70 | < 4.70 | – | < 4.70 | 4.80 | < 4.70 | 5.07 | < 4.70 | < 4.70 | – | – |
| CC[C@H](C)[C@H](NC(=O)[C@@H](NC(=O)[C@@H]1CCCN1C(=O)[C@@H](NC(=O)[C@@H](NC(=O)[C@H](CC(N)=O)NC(=O)CNC(=O)[C@H](CO)NC(=O)[C@H](CS)NC(=O)[C@@H](NC(=O)[C@H](CCCCN)NC(=O)[C@@H](N)CCCNC(=N)N)C(C)C)[C@@H](C)O)[C@@H](C)O)[C@@H](C)CC)C(=O)N[C@@H](Cc1c[nH]cn1)C(=O)N[C@@H](CC(C)C)C(=O)N[C@@H](CCCCN)C(=O)O [Peptide 1601.43] | < 4.70 | 5.04 | – | 5.09 | 5.95 | 5.88 | 5.68 | 5.09 | < 4.70 | 4.74 | < 4.70 | 7.96 | – | – | – |
| SNEVSSPEIIRQHLA [Peptide 1601.06] | < 4.70 | < 4.70 | 5.07 | 5.27 | – | < 4.70 | 7.89 | < 4.70 | 5.32 | < 4.70 | < 4.70 | – | < 4.70 | – | – |
| CC(C)C[C@H](NC(=O)[C@H](CCC(N)=O)NC(=O)[C@H](CCCCN)NC(=O)[C@@H](NC(=O)[C@H](CC(C)C)NC(=O)[C@H](CCC(N)=O)NC(=O)[C@@H](NC(=O)[C@H](C)NC(=O)[C@H](CO)NC(=O)[C@@H](NC(=O)[C@@H](NC(=O)[C@H](CC(=O)O)NC(=O)[C@H](CC(=O)O)NC(=O)[C@@H](N)CO)[C@@H](C)O)C(C)C)[C@@H](C)O)C(C)C)C(=O)N[C@@H](CCC(N)=O)C(=O)O [Peptide 1601.13] | 4.81 | 4.79 | 5.12 | < 4.70 | – | 5.14 | 7.59 | 4.71 | 4.98 | < 4.70 | < 4.70 | 4.78 | 5.02 | – | – |
| STSDDTVSATQIVRQ [Peptide 1601.31] | < 4.70 | < 4.70 | 5.28 | < 4.70 | < 4.70 | 4.74 | – | < 4.70 | 5.43 | < 4.70 | < 4.70 | < 4.70 | 6.25 | – | – |
| LKGDANILKCLRYRL [Peptide 1601.26] | 5.26 | 5.50 | 5.04 | 6.22 | < 4.70 | 4.76 | 5.21 | – | 7.28 | < 4.70 | 5.50 | 5.16 | 5.25 | – | – |
| DICNTMHYTNWTHIY [Peptide 1601.04] | < 4.70 | 5.55 | 6.39 | – | 5.31 | 5.05 | 5.22 | – | 4.83 | < 4.70 | 5.14 | 5.98 | 6.05 | – | – |
| NCNSNTTPIVHLKGD [Peptide 1601.08] | < 4.70 | < 4.70 | – | < 4.70 | 5.50 | 4.94 | 5.58 | < 4.70 | < 4.70 | < 4.70 | < 4.70 | – | 5.51 | – | – |
| DFLNTVKIPNTVSVS [Peptide 1601.28] | 6.56 | 4.93 | 6.33 | 5.66 | 6.43 | 6.11 | – | 5.68 | < 4.70 | < 4.70 | < 4.70 | 6.88 | 6.30 | – | – |
